Measurements from ChEMBL document CHEMBL1909616, “Identification of 4-quinolone derivatives as inhibitors of reactive oxygen species production from human umbilical vein endothelial cells” (Bioorg Med Chem Lett, 2011).
Values after ≈ are worked out from the molar mass of the structure shown.

Experiments:
[1] = Aqueous solubility of the compound at pH 6.8; format: physicochemical; details: aqueous medium
[2] = Intrinsic clearance in mouse liver microsomes at 0.2 uM; format: ADME, Microsome
[3] = Intrinsic clearance in human liver microsomes at 0.2 uM; format: ADME, Microsome
[4] = AUC (0 to 24 hrs) in Sprague-Dawley rat at 1 mg/kg, po; format: ADME, organism-based; design: time < 24 hr, dose 1 mg/kg, route oral; details: plasma
[5] = Tmax in Sprague-Dawley rat at 1 mg/kg, po; format: ADME, organism-based; design: dose 1 mg/kg, route oral; details: in vivo
[6] = Oral availability in Sprague-Dawley rat at 1 mg/kg; format: ADME, organism-based; design: dose 1 mg/kg; details: in vivo
[7] = Volume of distribution at steady state in Sprague-Dawley rat at 0.3 mg/kg, iv; format: ADME, organism-based; design: dose 0.3 mg/kg, route intravenous; details: in vivo, read-out: Vdss
[8] = Total clearance in Sprague-Dawley rat at 0.3 mg/kg, iv; format: ADME, organism-based; design: dose 0.3 mg/kg, route intravenous; details: in vivo
[9] = Half life in Sprague-Dawley rat at 0.3 mg/kg, iv; format: ADME, organism-based; design: dose 0.3 mg/kg, route intravenous; details: in vivo
[10] = AUC (0 to 24 hrs) in Sprague-Dawley rat at 0.3 mg/kg, iv; format: ADME, organism-based; design: time < 24 hr, dose 0.3 mg/kg, route intravenous; details: plasma
[11] = Cmax in Sprague-Dawley rat at 1 mg/kg, po; format: ADME, organism-based; design: dose 1 mg/kg, route oral; details: in vivo
[12] = AUC (0 to 24 hrs) in Sprague-Dawley rat at 3 mg/kg, po; format: ADME, organism-based; design: time < 24 hr, dose 3 mg/kg, route oral; details: plasma
[13] = Tmax in Sprague-Dawley rat at 3 mg/kg, po; format: ADME, organism-based; design: dose 3 mg/kg, route oral; details: in vivo
[14] = Cmax in Sprague-Dawley rat at 3 mg/kg, po; format: ADME, organism-based; design: dose 3 mg/kg, route oral; details: in vivo
[15] = Oral availability in Sprague-Dawley rat at 3 mg/kg; format: ADME, organism-based; design: dose 3 mg/kg; details: in vivo

Structure (SMILES) | solubility [1] [µM] | CLint scaled at 0.2 µM [2] [mL/min/kg] | CLint scaled at 0.2 µM [3] [mL/min/kg] | other results
COc1ccc2[nH]c(COc3cccc(OCC4CCOCC4)c3)c(C)c(=O)c2c1 | < 1 |  |  | 
Cc1c(COc2cccc(OCC3CCOCC3)c2)[nH]c2ccc(Cl)cc2c1=O | < 1 | > 1000 | > 1000 | 
Cc1ccc2[nH]c(COc3cccc(OCC4CCOCC4)c3)c(C)c(=O)c2c1 | < 1 |  |  | 
Cc1c(COc2cccc(OCC3CCOCC3)c2)[nH]c2ccc(Br)cc2c1=O | < 1 |  |  | 
Cc1c(COc2cccc(OCC3CCOCC3)c2)[nH]c2ccc(-c3cccnc3)cc2c1=O | < 1 | > 1000 | 756 | 
CC(C)c1c(COc2cccc(OCC3CCOCC3)c2)[nH]c2ccccc2c1=O | 3 (≈ 1.22 µg/mL) |  |  | 
COC(C)(C)CCOc1cccc(OCc2[nH]c3ccccc3c(=O)c2C)c1 | 2 (≈ 0.763 µg/mL) | > 1000 | > 1000 | 
Cc1c(COc2cccc(OCC3CCOCC3)c2)[nH]c2ccc(F)cc2c1=O | 2 (≈ 0.795 µg/mL) | > 1000 | 473 | 
O=c1c(Cl)c(COc2cccc(OCC3CCOCC3)c2)[nH]c2ccccc12 | 2 (≈ 0.8 µg/mL) | > 1000 | 460 | 
Cc1c(COc2cccc(OCC3CCOCC3)c2)[nH]c2ccc(C(=O)O)cc2c1=O | ≥ 100 | < 50 | < 20 | 
O=c1cc(COc2cccc(OCC3CCOCC3)c2)[nH]c2ccccc12 | 4 (≈ 1.46 µg/mL) | 197 | 78 | 
Cc1c(COc2cccc(OCCCC(F)(F)F)c2)nc2ccccc2c1O | < 1 | > 1000 | 257 | 

Further lines, with some results ahead:

solubility [1] [µM] | CLint scaled at 0.2 µM [2] [mL/min/kg] | CLint scaled at 0.2 µM [3] [mL/min/kg] | Structure (SMILES) | other results
≥ 100 | 295 | 53 | Cc1c(COCCCCOCC2(C)COC2)[nH]c2ccccc2c1=O | 
≥ 100 | 238 | 133 | Cc1c(COc2cncc(OCC3CCOCC3)c2)[nH]c2ccccc2c1=O | 
< 1 | > 1000 | > 1000 | CCCCCC/C=C/Cc1[nH]c2ccccc2c(=O)c1C | 
< 1 | > 1000 | > 1000 | CCCCOc1cccc(OCc2[nH]c3ccccc3c(=O)c2C)c1 | 
≥ 100 | > 1000 | 45 | COCCOCCCCc1[nH]c2ccccc2c(=O)c1C | 
36 (≈ 13.7 µg/mL) | 312 | 113 | Cc1c(COc2cc(OCC3CCOCC3)ccn2)[nH]c2ccccc2c1=O | 
3 (≈ 1.14 µg/mL) | 984 | 770 | Cc1c(COc2cccc(OCC3CCOCC3)n2)[nH]c2ccccc2c1=O | 
85 (≈ 31.3 µg/mL) | 112 | 38 | Cc1c(COc2cc(OCCC(C)(C)O)ccn2)[nH]c2ccccc2c1=O | AUC(0-t) at 24 h [4]: 2240 ng·h/mL; Tmax [5]: 4 h; bioavailability [6]: 78%; Vd [7]: 1.4 L/kg; clearance [8]: 6 mL/min/kg; half-life [9]: 4.1 h; AUC(0-t) at 24 h [10]: 897 ng·h/mL; Cmax [11]: 202 ng/mL
≥ 100 |  |  | Cc1c(COCCCCO)nc2ccccc2c1O | 
< 1 | > 1000 | > 1000 | CCCCCCCCCc1[nH]c2ccccc2c(=O)c1C | 
≥ 100 | 225 | 66 | Cc1c(COc2cncc(OCCC(C)(C)O)c2)[nH]c2ccccc2c1=O | 
5 (≈ 1.9 µg/mL) | 420 | 214 | Cc1c(COc2cccc(OCC3CCOCC3)c2)[nH]c2ccccc2c1=O | AUC(0-t) at 24 h [12]: 526 ng·h/mL; Vd [7]: 2.3 L/kg; clearance [8]: 26 mL/min/kg; half-life [9]: 1.8 h; Tmax [13]: 0.22 h; AUC(0-t) at 24 h [10]: 196 ng·h/mL; Cmax [14]: 196 ng/mL; bioavailability [15]: 27%
22 (≈ 8.37 µg/mL) | 203 | 95 | Cc1c(COc2ccnc(OCC3CCOCC3)c2)[nH]c2ccccc2c1=O | 
